Experimental findings from US12673945B2, “3-((8-((1H-pyrazol-4-yl)amino)imidazo[1,2-a]pyridin-3-yl)ethinyl)-n-phenylbenzamide derivative, method for preparing same, and pharmaceutical composition containing same as active ingredient for prevention or treatment of cancer” (DAEGU-GYEONGBUK MEDICAL INNOVATION FOUNDATION, priority 2020, dated 2026) are described below.

Common to all, as to type: cell-based
Experiment [1] has as its system Parental (Ba/F3). Description: Ba/F3 cell proliferation inhibition. The note with it: BaF3; 72 hours, Cell Counting Kit-8. Put shortly: (§1)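 GI50 derived from CCK-8 absorbance at 450 nm (2 h development), expressed relative to DMSO vehicle. Cells (parental or T315I-Bcr-Abl Ba/F3, 1×10^4/well) received nine threefold-diluted concentrations, final 0 to 10 μM, for 72 h at 37 °C.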

The test system of experiment [2] is T315I-Bcr-Abl (Ba/F3). The experiment is described as follows: Ba/F3 cell proliferation inhibition. The note with it: BaF3; 72 hours, Cell Counting Kit-8. The essentials: as §1
On the technique in general: Tetrazolium dyes change colour on reduction, which living cells bring about.

The test system of experiment [3] is KOPM28 cells. Description: human CML cell proliferation inhibition. To be noted: 72 hours, Cell Counting Kit-8. Put shortly: (§2)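 Growth inhibition over 72 h at 37 °C in Bcr-Abl (TCCS, KOPM28) or T315I-Bcr-Abl (T315I-TCCS, T315I-KOPM28) human CML cells, 1×10^4 cells/well. Nine 5-fold dilutions gave final 0 to 10 μM, with DMSO as control. GI50 was derived from CCK-8 A450 as percent of vehicle.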

Experiment [4] deals with T315I-KOPM28 cells. The experiment is described as follows: human CML cell proliferation inhibition. The note with it: 72 hours, Cell Counting Kit-8. The essentials:
as §2

Experiment [5] relates to T315I-TCCS cells. Description: human CML cell proliferation inhibition. To be noted: 72 hours, Cell Counting Kit-8. The essentials: as §2
In experiment [6] the test system is TCCS cells. Description: human CML cell proliferation inhibition. The note with it: 72 hours, Cell Counting Kit-8. The essentials:
as §2

As for `Cc1cc(F)c(C(=O)Nc2cc(Cn3cncn3)cc(C(C)(C)C#N)c2)cc1C#Cc1cnc2c(Nc3cn[nH]c3)cccn12` [Example 89, N-(3-((1H-1,2,4-triazol-1-yl)methyl)-5-(2-cyanopropan-2-yl)phenyl)-5-((8-((1H-pyrazol-4-yl)amino)imidazo[1,2-a]pyridin-3-yl)ethynyl)-2-fluoro-4-methylbenzamide], the GI50 was above 5000 nM in experiment [1]; below 50 nM in experiment [2]; below 10 nM in experiment [3]; 100 nM in experiment [4]; 100 nM in experiment [5]; below 10 nM in experiment [6].
`Cc1cc(F)c(C(=O)Nc2cc(-c3cccnc3)cc(C(F)(F)F)c2)cc1C#Cc1cnc2c(Nc3cnn(C)c3)cccn12` [Example 53, 2-fluoro-4-methyl-5-((8-((1-methyl-1H-pyrazol-4-yl)amino)imidazo[1,2-a]pyridin-3-yl)ethynyl)-N-(3-(pyridin-3-yl)-5-(trifluoromethyl)phenyl)benzamide]: the GI50 in experiment [1] was above 5000 nM; in experiment [2], 50 to 500 nM; in experiment [3], below 10 nM; in experiment [4] it was above 100 nM; in experiment [5] it was 100 nM; in experiment [6], below 10 nM.
Turning to `Cc1cc(Cl)c(C(=O)Nc2cc(Oc3ccncc3)cc(C(F)(F)F)c2)cc1C#Cc1cnc2c(Nc3cnn(C)c3)cccn12` [Example 15, 2-chloro-4-methyl-5-((8-((1-methyl-1H-pyrazol-4-yl)amino)imidazo[1,2-a]pyridin-3-yl)ethynyl)-N-(3-(pyridin-4-yloxy)-5-(trifluoromethyl)phenyl)benzamide], the GI50 in experiment [1] was above 5000 nM; in experiment [2], below 50 nM; in experiment [3] it was below 10 nM; in experiment [4], below 10 nM; in experiment [5] it was below 10 nM; in experiment [6], below 10 nM.
For the compound `Cc1cc(F)c(C(=O)Nc2cc(CN3CCC(N(C)C)C3)cc(C(C)(C)C#N)c2)cc1C#Cc1cnc2c(Nc3cnn(C)c3)cccn12` (stereo not drawn) [Example 29, N-(3-(2-cyanopropan-2-yl)-5-((3-(dimethylamino)pyrrolidin-1-yl)methyl)phenyl)-2-fluoro-4-methyl-5-((8-((1-methyl-1H-pyrazol-4-yl)amino)imidazo[1,2-a]pyridin-3-yl)ethynyl)benzamide], the GI50 was 500 to 5000 nM in experiment [1]; 50 to 500 nM in experiment [2]; below 10 nM in experiment [3]; 100 nM in experiment [4]; 100 nM in experiment [5]; below 10 nM in experiment [6].
As to `Cc1cc(F)c(C(=O)Nc2ccc(CN3CCN(C)CC3)c(C(F)(F)F)c2)cc1C#Cc1cnc2c(Nc3cn[nH]c3)cccn12` [Example 109, 5-((8-((1H-pyrazol-4-yl)amino)imidazo[1,2-a]pyridin-3-yl)ethynyl)-2-fluoro-4-methyl-N-(4-((4-methylpiperazin-1-yl)methyl)-3-(trifluoromethyl)phenyl)benzamide], the GI50 in experiment [1] was 500 to 5000 nM; in experiment [2], below 50 nM; in experiment [3] it was below 10 nM; in experiment [4] it was below 10 nM; in experiment [5], below 10 nM; in experiment [6], below 10 nM.
For `Cc1cc(F)c(C(=O)Nc2ccc(CN3CCN(C)C(=O)C3)c(C(F)(F)F)c2)cc1C#Cc1cnc2c(Nc3cnn(C)c3)cccn12` [Example 58, 2-fluoro-4-methyl-5-((8-((1-methyl-1H-pyrazol-4-yl)amino)imidazo[1,2-a]pyridin-3-yl)ethynyl)-N-(4-((4-methyl-3-oxopiperazin-1-yl)methyl)-3-(trifluoromethyl)phenyl)benzamide], the GI50 was above 5000 nM in experiment [1]; below 50 nM in experiment [2]; below 10 nM in experiment [3]; 100 nM in experiment [4]; 100 nM in experiment [5]; below 10 nM in experiment [6].
`Cc1cc(F)c(C(=O)Nc2ccc(CN3CCN(C)CC3)c(C(C)(C)C#N)c2)cc1C#Cc1cnc2c(Nc3cnn(C)c3)cccn12` [Example 39, N-(3-(2-cyanopropan-2-yl)-4-((4-methylpiperazin-1-yl)methyl)phenyl)-2-fluoro-4-methyl-5-((8-((1-methyl-1H-pyrazol-4-yl)amino)imidazo[1,2-a]pyridin-3-yl)ethynyl)benzamide]: the GI50 was above 5000 nM in experiment [1]; below 50 nM in experiment [2]; below 10 nM in experiment [3]; 100 nM in experiment [4]; 100 nM in experiment [5]; below 10 nM in experiment [6].
Consider `Cc1cc(F)c(C(=O)Nc2cc(N3CCCN(C)CC3)cc(C(C)(C)C#N)c2)cc1C#Cc1cnc2c(Nc3cnn(C)c3)cccn12` [Example 21, N-(3-(2-cyanopropan-2-yl)-5-(4-methyl-1,4-diazepan-1-yl)phenyl)-2-fluoro-4-methyl-5-((8-((1-methyl-1H-pyrazol-4-yl)amino)imidazo[1,2-a]pyridin-3-yl)ethynyl)benzamide], for which the GI50 is 500 to 5000 nM in experiment [1]; 50 to 500 nM in experiment [2]; below 10 nM in experiment [3]; above 100 nM in experiment [4]; 100 nM in experiment [5]; below 10 nM in experiment [6].
With `Cc1cc(F)c(C(=O)Nc2ccc(CN3CCOCC3)c(C(F)(F)F)c2)cc1C#Cc1cnc2c(Nc3cnn(C)c3)cccn12` [Example 57, 2-fluoro-4-methyl-5-((8-((1-methyl-1H-pyrazol-4-yl)amino)imidazo[1,2-a]pyridin-3-yl)ethynyl)-N-(4-(morpholinomethyl)-3-(trifluoromethyl)phenyl)benzamide], the GI50 in experiment [1] was above 5000 nM; in experiment [2] it was 50 to 500 nM; in experiment [3], below 10 nM; in experiment [4], above 100 nM; in experiment [5] it was 100 nM; in experiment [6], 100 nM.
With `Cc1cc(F)c(C(=O)Nc2ccc(CN3CCN(CCO)CC3)c(C(F)(F)F)c2)cc1C#Cc1cnc2c(Nc3cnn(C)c3)cccn12` [Example 56, 2-fluoro-N-(4-((4-(2-hydroxyethyl)piperazin-1-yl)methyl)-3-(trifluoromethyl)phenyl)-4-methyl-5-((8-((1-methyl-1H-pyrazol-4-yl)amino)imidazo[1,2-a]pyridin-3-yl)ethynyl)benzamide], the GI50 in experiment [1] was 500 to 5000 nM; in experiment [2] it was below 50 nM; in experiment [3], below 10 nM; in experiment [4] it was below 10 nM; in experiment [5], below 10 nM; in experiment [6] it was below 10 nM.
For `Cc1cc(F)c(C(=O)Nc2ccc(CN3CCN(C)C(=O)C3)c(C(C)(C)C#N)c2)cc1C#Cc1cnc2c(Nc3cnn(C)c3)cccn12` [Example 44, N-(3-(2-cyanopropan-2-yl)-4-((4-methyl-3-oxopiperazin-1-yl)methyl)phenyl)-2-fluoro-4-methyl-5-((8-((1-methyl-1H-pyrazol-4-yl)amino)imidazo[1,2-a]pyridin-3-yl)ethynyl)benzamide], the GI50 is 500 to 5000 nM in experiment [1]; 50 to 500 nM in experiment [2]; below 10 nM in experiment [3]; above 100 nM in experiment [4]; above 100 nM in experiment [5]; below 10 nM in experiment [6].
In the case of `Cc1cc(F)c(C(=O)Nc2cc(-c3ccncc3)cc(C(F)(F)F)c2)cc1C#Cc1cnc2c(Nc3cnn(C)c3)cccn12` [Example 52, 2-fluoro-4-methyl-5-((8-((1-methyl-1H-pyrazol-4-yl)amino)imidazo[1,2-a]pyridin-3-yl)ethynyl)-N-(3-(pyridin-4-yl)-5-(trifluoromethyl)phenyl)benzamide], the GI50 in experiment [1] was above 5000 nM; in experiment [2], 50 to 500 nM; in experiment [3], below 10 nM; in experiment [4], 100 nM; in experiment [5] it was 100 nM; in experiment [6], below 10 nM.
Consider `Cc1cc(F)c(C(=O)Nc2ccc(CN3CCOCC3)c(C(C)(C)C#N)c2)cc1C#Cc1cnc2c(Nc3cnn(C)c3)cccn12` [Example 40, N-(3-(2-cyanopropan-2-yl)-4-(morpholinomethyl)phenyl)-2-fluoro-4-methyl-5-((8-((1-methyl-1H-pyrazol-4-yl)amino)imidazo[1,2-a]pyridin-3-yl)ethynyl)benzamide], for which the GI50 in experiment [1] was above 5000 nM; in experiment [2], 50 to 500 nM; in experiment [3], below 10 nM; in experiment [4], above 100 nM; in experiment [5], above 100 nM; in experiment [6], below 10 nM.
In the case of `Cc1cc(F)c(C(=O)Nc2cc(N(C)CCN(C)C)cc(C(C)(C)C#N)c2)cc1C#Cc1cnc2c(Nc3cn[nH]c3)cccn12` [Example 81, 5-((8-((1H-pyrazol-4-yl)amino)imidazo[1,2-a]pyridin-3-yl)ethynyl)-N-(3-(2-cyanopropan-2-yl)-5-((2-(dimethylamino)ethyl)(methyl)amino)phenyl)-2-fluoro-4-methylbenzamide], the GI50 is 500 to 5000 nM in experiment [1]; 50 to 500 nM in experiment [2]; below 10 nM in experiment [3]; above 100 nM in experiment [4]; 100 nM in experiment [5]; below 10 nM in experiment [6].
In the case of `Cc1cc(F)c(C(=O)Nc2cc(N3CCN(C)C(=O)C3)cc(C(F)(F)F)c2)cc1C#Cc1cnc2c(Nc3cnn(C)c3)cccn12` [Example 49, 2-fluoro-4-methyl-5-((8-((1-methyl-1H-pyrazol-4-yl)amino)imidazo[1,2-a]pyridin-3-yl)ethynyl)-N-(3-(4-methyl-3-oxopiperazin-1-yl)-5-(trifluoromethyl)phenyl)benzamide], the GI50 in experiment [1] is 500 to 5000 nM; in experiment [2] it was 50 to 500 nM; in experiment [3], below 10 nM; in experiment [4], 100 nM; in experiment [5], below 10 nM; in experiment [6] it was below 10 nM.

For orientation: GI50 means the concentration that inhibits growth by half.
